Results reported in patent publication US10472385B2, “Triterpene-glycosides as sweeteners or sweetener enhancers” (priority 2013, dated 2019).

Test system: panel of 4 panelists (sweet taste)
Test: Organoleptic test of the compounds of formula (I) against sucrose and mogroside V
Type: in vivo
Set-up: key: 3 = sweeter than control, 1 = less sweet than control but still sweet
Settings: compound 0.4 mg/ml (400 ppm) in non-carbonated mineral water; for Organoleptic evaluation compared to mogroside V*: control solution mogroside V 0.1 mg/ml (100 ppm); for Organoleptic evaluation compared to sucrose*: control solution sucrose 20 mg/ml
Description: Organoleptic Test of the Compounds of Formula (I) Against Sucrose and Mogroside V
The isolated pure compounds were dissolved in non-carbonated mineral water (“Fonsana Quelle”) in a concentration of 0.4 mg/ml (400 ppm). The sweet taste of each sample was compared by a panel of 4 panelists with a solution of sucrose in a concentration of 20 mg/ml and with a solution of the known sweetener mogroside V (isolated by AnalytiCon from Momordica grosvenori) in a concentration of 0.1 mg/ml (100 ppm).
The sweetness was evaluated as follows:
3=sweeter than the control solution
1=less sweet than the control solution but still sweet

SMILES	Organoleptic evaluation compared to mogroside V*	Organoleptic evaluation compared to sucrose*
C[C@H](CC[C@@H](O[C@@H]1O[C@H](CO)[C@@H](O)[C@H](O)[C@H]1O[C@@H]1O[C@H](CO)[C@@H](O)[C@H](O)[C@H]1O)C(C)(C)O)[C@H]1CC[C@@]2(C)[C@@H]3CC=C4C(CC[C@H](O)C4(C)C)[C@]3(C)[C@H](O)C[C@]12C (stereo partly drawn) [Compound Aa, (2S,3R,4S,5S,6R)-2-((2S,3R,4S,5S,6R)-2-((3R,6R)-6-((3S,8S,9R,11R,13R,14S,17R)-3,11-dihydroxy-4,4,9,13,14-pentamethyl-2,3,4,7,8,9,10,11,12,13,14,15,16,17-tetradecahydro-1H-cyclopenta[a]phenanthren-17-yl)-2-hydroxy-2-methylheptan-3-yloxy)-4,5-dihydroxy-6-(hydroxymethyl)tetrahydro-2H-pyran-3-yloxy)-6-(hydroxymethyl)tetrahydro-2H-pyran-3,4,5-triol]	2	3
C[C@H](CC[C@@H](O[C@@H]1O[C@H](CO[C@@H]2O[C@H](CO)[C@@H](O)[C@H](O)[C@H]2O)[C@@H](O)[C@H](O)[C@H]1O[C@@H]1O[C@H](CO)[C@@H](O)[C@H](O)[C@H]1O)C(C)(C)O)[C@H]1CC[C@@]2(C)C3CC=C4C(CC[C@H](O[C@@H]5O[C@H](CO)[C@@H](O[C@@H]6O[C@H](CO)[C@@H](O)[C@H](O)[C@H]6O)[C@H](O)[C@H]5O)C4(C)C)[C@]3(C)CC[C@]12C (stereo partly shown) [Compound Cc]	3	3
C[C@H](CC[C@@H](O[C@@H]1O[C@H](CO[C@@H]2O[C@H](CO)[C@@H](O)[C@H](O)[C@H]2O)[C@@H](O)[C@H](O)[C@H]1O[C@@H]1O[C@H](CO)[C@@H](O)[C@H](O)[C@H]1O)C(C)(C)O)[C@H]1CC[C@@]2(C)[C@@H]3CC=C4C(CC[C@H](O[C@@H]5O[C@H](CO)[C@@H](O)[C@H](O)[C@H]5O[C@@H]5O[C@H](CO)[C@@H](O)[C@H](O)[C@H]5O)C4(C)C)[C@]3(C)CC[C@]12C (stereo partly shown) [Compound Dd]	3	3
C[C@H](CC[C@@H](O[C@@H]1O[C@H](CO[C@@H]2O[C@H](CO)[C@@H](O)[C@H](O)[C@H]2O)[C@@H](O)[C@H](O)[C@H]1O[C@@H]1O[C@H](CO)[C@@H](O)[C@H](O)[C@H]1O)C(C)(C)O)[C@H]1CC[C@@]2(C)[C@@H]3CC=C4C(CC[C@H](O[C@@H]5O[C@H](CO)[C@@H](O)[C@H](O)[C@H]5O)C4(C)C)[C@]3(C)CC[C@]12C (stereo partly shown) [Compound Ee]	3	3
C[C@H](CC[C@@H](O[C@@H]1O[C@H](CO[C@@H]2O[C@H](CO)[C@@H](O)[C@H](O)[C@H]2O)[C@@H](O)[C@H](O)[C@H]1O[C@@H]1O[C@H](CO)[C@@H](O)[C@H](O)[C@H]1O)C(C)(C)O)[C@H]1CC[C@@]2(C)[C@@H]3CC=C4[C@@H](CC[C@H](O[C@@H]5O[C@H](CO)[C@@H](O)[C@H](O)[C@H]5O[C@@H]5O[C@H](CO)[C@@H](O)[C@H](O)[C@H]5O)C4(C)C)[C@]3(C)[C@H](O)C[C@]12C [Compound Ff]	2	3
C[C@H](CC[C@@H](O[C@@H]1O[C@H](CO)[C@@H](O)[C@H](O)[C@H]1O[C@@H]1O[C@H](CO)[C@@H](O)[C@H](O)[C@H]1O)C(C)(C)O)[C@H]1CC[C@@]2(C)C3CC=C4C(CC[C@H](O[C@@H]5O[C@H](CO)[C@@H](O)[C@H](O)[C@H]5O)C4(C)C)[C@]3(C)CC[C@]12C (stereo partly shown) [Compound Gg]	3	3
C[C@H](CCC(=O)C(C)(C)O)[C@H]1CC[C@@]2(C)C3CC=C4[C@@H](CC[C@H](O[C@@H]5O[C@H](CO[C@@H]6O[C@H](CO)[C@@H](O)[C@H](O)[C@H]6O)[C@@H](O)[C@H](O)[C@H]5O)C4(C)C)[C@]3(C)[C@H](O)C[C@]12C (stereo partly drawn) [Compound Hh, (6R)-2-hydroxy-6-((3S,9R,10R,11R,13R,14S,17R)-11-hydroxy-4,4,9,13,14-pentamethyl-3-((2R,3R,4S,5S,6R)-3,4,5-trihydroxy-6-(((2R,3R,4S,5S,6R)-3,4,5-trihydroxy-6-(hydroxymethyl)tetrahydro-2H-pyran-2-yloxy)methyl)tetrahydro-2H-pyran-2-yloxy)-2,3,4,7,8,9,10,11,12,13,14,15,16,17-tetradecahydro-1H-cyclopenta[a]phenanthren-17-yl)-2-methylheptan-3-one]	1	2
C[C@H](CC[C@@H](O[C@@H]1O[C@H](CO[C@@H]2O[C@H](CO)[C@@H](O)[C@H](O)[C@H]2O)[C@@H](O)[C@H](O)[C@H]1O[C@@H]1O[C@H](CO)[C@@H](O)[C@H](O)[C@H]1O)C(C)(C)O)[C@H]1CC[C@@]2(C)C3CC=C4[C@@H](CCC(=O)C4(C)C)[C@]3(C)[C@H](O)C[C@]12C (stereo partly shown) [Compound Jj]	2	3
C[C@H](CC[C@@H](O[C@@H]1O[C@H](CO[C@@H]2O[C@H](CO)[C@@H](O)[C@H](O)[C@H]2O)[C@@H](O)[C@H](O)[C@H]1O[C@@H]1O[C@H](CO)[C@@H](O)[C@H](O)[C@H]1O)C(C)(C)O)[C@H]1CC[C@@]2(C)C3CC=C4[C@@H](CC[C@H](O)C4(C)C)[C@]3(C)CC[C@]12C (stereo partly shown) [Compound Kk]	1	2
C[C@H](CC[C@@H](O[C@@H]1O[C@H](CO[C@@H]2O[C@H](CO)[C@@H](O)[C@H](O)[C@H]2O)[C@@H](O)[C@H](O)[C@H]1O[C@@H]1O[C@H](CO)[C@@H](O)[C@H](O)[C@H]1O)C(C)(C)O)[C@H]1CC[C@@]2(C)C3CC=C4[C@@H](CC[C@H](O[C@@H]5O[C@H](CO)[C@@H](O)[C@H](O)[C@H]5O)C4(C)C)[C@]3(C)C(=O)C[C@]12C (stereo partly shown) [Compound Ll]	3	3
C[C@H](CC[C@@H](O[C@@H]1O[C@H](CO[C@@H]2O[C@H](CO)[C@@H](O)[C@H](O)[C@H]2O)[C@@H](O)[C@H](O)[C@H]1O[C@@H]1O[C@H](CO)[C@@H](O)[C@H](O)[C@H]1O)C(C)(C)O)[C@H]1CC[C@@]2(C)C3CC=C4[C@@H](CC[C@H](O[C@@H]5O[C@H](CO)[C@@H](O)[C@H](O)[C@H]5O)C4(C)C)[C@]3(C)CC[C@]12C (stereo partly shown) [Compound Mm]	3	3
